{"source": "patent US6670132B2", "about": "“Determining non-nucleic acid molecule binding to target by competition with nucleic acid ligand” (Gilead Sciences, Inc., priority 1999, dated 2003)", "molecules": {"B1": {"name": "11.20: 98-mer RNA transcript with 2′aminopyrimidine bases, WGA aptamer (nucleic acid)", "chain": "GGGAAAAGCGAAUCAUACACAAGAUUGGUCGUACUGGACAGAGCCGUGGUAGAGGGAUUGGGACAAAGUGUCAGCUCCGCCAGAGACCAACCGAGAA", "modifications": "[NH2-N] at CU, RNA at AG, all phosphodiester, methylation of C not given here"}}, "key": {"[1]": {"biological_target": "T1, PDGF-BB (Homo sapiens, UniProt P01127)", "T1 construct": "purchased R&D Systems (Minneapolis, Minn.)", "T1 sequence (P01127 82-190 limits assumed)": "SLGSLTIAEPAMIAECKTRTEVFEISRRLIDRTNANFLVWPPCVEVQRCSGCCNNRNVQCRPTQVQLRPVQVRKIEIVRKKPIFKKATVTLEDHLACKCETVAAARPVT", "assay": "Binding of PDGF aptamers to PDGF-BB", "excerpt": "For the PDGF competition assay, a DNA PDGF aptamer sequence identified previously was used. The aptamer and methods used herein are described in detail in Example One. Aptamers obtained in this experiment bind preferentially to the B-chain of PDGF in a manner that inhibits receptor binding and PDGF-BB-induced DNA synthesis in vitro. Using photo-crosslinking experiments, it has been shown that a specific nucleotide in the aptamer interacts with phenylalanine-84 of the PDGF B-chain which is located near the region of PDGF know to be involved in receptor binding (Green, L. S. et al. (1996) Biochemistry 35, 14413-24). […] Thus, the aptamer used for competition binding experiments, 20tb, is a 27-mer that binds to PDGF-BB with a Kd of 0.5 nM.\nA panel of oligoanions, mostly in the naphthalene sulfonic acid class, were screened for their ability to displace a ^32P-radiolabeled aptamer (20tb) from PDGF-BB. […] A nitrocellulose filter binding method was used to separate bound from unbound aptamer. Structures of competitors used in this competition assay are shown in FIGS. 1A-C along with the Kdc values calculated form the competition profiles (FIG. 2) according to equations (1)-(3) (Experimental Methods). For all competition experiments, the concentration of the ^32P end-labeled 20tb aptamer and PDGF-BB was 1.16 nM and 1.0 nM, respectively. […]"}, "[2]": {"tested_on": "wheat germ agglutinin (WGA)", "assay": "Wheat germ agglutinin aptamer competition assay (displacement of 32P-labeled 11.20, nitrocellulose filter binding)", "set-up": "species or system Triticum vulgare", "conditions": "10 nM 32P end-labeled 11.20, 10 nM WGA, room temperature", "experimental": "Small molecule oligosaccharides were screened for their ability to compete with WGA aptamer 11.20 for binding to wheat germ agglutinin protein. The small molecule (or cold 11.20) competitors at varying concentrations were mixed with the 5′-32P end-labeled 11.20 ligand at room temperature. Then WGA was added to the mixture and allowed to equilibrate for 60 minutes at room temperature. The competition mixtures (90 μL volume) all had 32P end-labeled 11.20 at 10 nM, WGA at 10 nM and were in 25 mM Hepes, 137 mM NaCl, 2.7 mM KCl, 1 mM MgCl2, 1 mM CaCl2, 0.067% human serum albumin (HSA), at pH 7.4 (HBSMC). Aptamer bound to WGA was separated from free aptamer by filtration through pre-washed […] nitrocellulose membrane filters. Filters were washed with 5 mL HBSMC at room temperature. The filters were placed in tubes with scintillant and the radioactivity counted to quantitate the fraction of 32P end-labeled 11.20 bound at each competitor concentration.\nCompetition experiments were analyzed by the following equation to determine the concentration of free protein, [PF], as a function of the total concentration of competitor added, [CT]:\n[PF]=[PT]/(1+KdR[RT]/(1+KdR[PF])+KdC[CT]/(1+KdC[PF])) (1)\n(§1) where KdR is the binding constant of species R to the protein (assuming 1:1 stoichiometry) and KdC is the binding constant of species C, the competitor, to the protein (assuming 1:1 stoichiometry). Equation (1) was solved to self-consistency of [PF] to a precision of 1×10^−15. Using these values of [PF], the concentration of protein-ligand complex [PR] as a function of [CT] was determined by the following equation:\n[PR]=KdR[RT][PF](1+KdC[PF]) (2)\nSince the experimental data are expressed as %[PR], the calculated concentration of [PR] was normalized by [PR0], the [PR] in the absence of the competitor. [PR0] was obtained by solving equation (1) where [CT]=0. The maximum (M) and minimum (B) %[PR] were allowed to float during the analysis as shown in the following equation:\n%[PR]=[PR]/[PR0](M−B)+B (3)\nA non-linear least-squares fitting procedure was used as described by Bates and Watts (Bates, D. M. and Watts, D. G. 1988 in Non-Linear Regression Analysis and its Applications, D. M. Bates and D. G. Watts editors, John Wiley & Sons, NY, N.Y.). […]\nA group of carbohydrates related to GlcNAc3 were tested for their ability to displace radiolabeled 11.20 from WGA. […] Structures of competitors used in this assay are shown in FIGS. 3A-C along with the Kdc values calculated from the competition profiles (FIGS. 4A-D) according to equations (1)-(3). […]"}, "[3]": {"tested_on": "WGA", "conditions": "cited from earlier work; for concentration required to completely inhibit WGA-mediated agglutination: tested previously (U.S. Pat. No. 5,780,228)"}, "[4]": {"biological_target": "T1, PDGF-BB", "assay": "PDGF aptamer competition assay (displacement of 32P-labeled 20tb, nitrocellulose filter binding)", "conditions": "competition with 1.16 nM 32P end-labeled 20tb, 1.0 nM PDGF-BB, 37° C.; calculated from competition profiles by equations (1)-(3); read-out: KdC", "experimental": "Small molecule oligoanions were screened for their ability to compete with PDGF aptamer 20tb for binding to the PDGF-BB protein. The small molecule (or cold 20tb) competitors at varying concentrations were mixed with the 5′-^32P end-labeled 20tb ligand at room temperature. PDGF was then added to the mixture and allowed to equilibrate for 45 minutes at room temperature followed by 15 minutes at 37° C. The competition mixtures (90 μL volume) all had ^32P end-labeled 20tb at 1.16 nM, PDGF-BB at 1 nM and were in 25 mM Hepes, 137 mM NaCl, 2.7 mM KCl, 1 mM MgCl2, 1 mM CaCl2, 0.067% human serum albumin (HSA), at pH 7.4 (HBSMC). […] The filters were placed in tubes with scintillant and the radioactivity counted to quantitate the fraction of ^32P end-labeled 20tb bound at each competitor concentration.\nCompetition experiments were analyzed by the following equation to determine the concentration of free protein, [PF], as a function of the total concentration of competitor added, [CT]: […]\nas §1, with “Equation (1) was solved to self-consistency of [PF] to a precision of 1×10^−15.” left out, “equation: […]” for “equation:”"}}, "note": "[NH2-N] = 2'-amino-2'-deoxy sugar (2'-aminopyrimidine nucleotide) (N: the base)"}
{"molecule": "20ta: synthetic 33-mer DNA oligo, PDGF aptamer, 5′CGGGCGCGTTCTTCGTGGTTACTTTTAGTCCCG (DNA, backbone not given here)", "values": [{"measurement": "Kd", "setting": "[1]; aptamer binding to PDGF", "result": 50, "unit": "pM"}]}
{"molecule": "20tb: synthetic 27-mer DNA oligo, truncated PDGF aptamer, 5′GGGCCGTTTCGGGTTACTTTTAGTCCC (DNA, backbone not given here)", "values": [{"measurement": "Kd", "setting": "[1]; aptamer binding to PDGF-BB", "result": 500, "unit": "pM"}]}
{"molecule": "CC(=O)N[C@H]1[C@H](O[C@H]2[C@H](O)[C@@H](NC(C)=O)C(O)O[C@@H]2CO)O[C@H](CO)[C@@H](O)[C@@H]1O", "note": "(some centres unmarked) [(GlcNAc)2, N,N′-diacetylchitobiose]", "values": [{"measurement": "ability to displace radiolabeled 11.20 from WGA", "setting": "[2]", "result": "best ligands"}]}
{"molecule": "CC(=O)N[C@H]1[C@H](O[C@H]2[C@H](O)[C@@H](NC(C)=O)C(O)O[C@@H]2CO)O[C@H](CO)[C@@H](O[C@@H]2O[C@H](CO)[C@@H](O)[C@H](O)[C@H]2NC(C)=O)[C@@H]1O", "note": "(some centres unmarked) [(GlcNAc)3, N,N′,N″-triacetylchitotriose]", "values": [{"measurement": "ability to displace radiolabeled 11.20 from WGA", "setting": "[2]", "result": "best ligands"}, {"measurement": "concentration required to completely inhibit WGA-mediated agglutination", "setting": "[3]", "result": 18.5, "unit": "µM"}]}
{"molecule": "CC(=O)N[C@H]1[C@H](O[C@H]2[C@H](O)[C@@H](NC(C)=O)C(O)O[C@@H]2CO)O[C@H](CO)[C@@H](O[C@@H]2O[C@H](CO)[C@@H](O[C@@H]3O[C@H](CO)[C@@H](O)[C@H](O)[C@H]3NC(C)=O)[C@H](O)[C@H]2NC(C)=O)[C@@H]1O", "note": "(some centres unmarked) [(GlcNAc)4, N,N′,N″,N′″-tetraacetyltetraose]", "values": [{"measurement": "ability to displace radiolabeled 11.20 from WGA", "setting": "[2]", "result": "best ligands"}]}
{"molecule": "CC(=O)N[C@H]1C(O)O[C@H](CO)[C@@H](O)[C@@H]1O", "note": "(stereo partly drawn) [GlcNAc, N-acetyl-D-glucosamine]", "values": [{"measurement": "ability to displace radiolabeled 11.20 from WGA", "setting": "[2]", "result": "not a competitor"}, {"measurement": "concentration required to completely inhibit WGA-mediated agglutination", "setting": "[3]", "result": 800, "unit": "µM"}]}
{"molecule": "O=S(=O)(O)c1ccc(N=Nc2c(S(=O)(=O)O)cc3cc(S(=O)(=O)O)cc(O)c3c2O)cc1", "note": "[SPADNS, 2-(4-sulfophenylazo)-1,8-dihydroxy-3,6-naphthalene disulfonic acid]", "values": [{"measurement": "Kd", "setting": "[4]", "result": 19, "unit": "µM"}]}
{"molecule": "O=S(=O)(O)c1ccc2c(S(=O)(=O)O)cc(S(=O)(=O)O)cc2c1", "note": "[naphthalene 1,3,6-trisulfonic acid]", "values": [{"measurement": "Kd", "setting": "[4]", "result": 870, "unit": "µM"}]}
{"molecule": "B1", "values": [{"measurement": "inhibition of WGA-mediated agglutination of sheep erythrocytes", "setting": "[3]; as described in U.S. Pat. No. 5,780,228", "result": "potently inhibited"}]}
